Experiments:
Rattus norvegicus [1] = assay: Antidiabetic activity in po dosed Rattus norvegicus Wistar (rat) assessed as decrease in STZ-induced plasma glucose level administered for 15 days by glucose oxidase method; format: functional, organism-based
Rattus norvegicus [2] = assay: Antidiabetic activity in Rattus norvegicus Wistar (rat) assessed as STZ-induced plasma glucose level at 20 mg/kg, po administered for 15 days by glucose oxidase method (reference value: 377.3 +/- 10.5 mg/dl); format: functional
Rattus norvegicus [3] = assay: Antidiabetic activity in Rattus norvegicus Wistar (rat) assessed as STZ-induced plasma glucose level at 5 mg/kg, po administered for 15 days by glucose oxidase method (reference value: 377.3 +/- 10.5 mg/dl); format: functional
Rattus norvegicus [4] = assay: Effect on plasma glucose level in normal Rattus norvegicus Wistar (rat) at 20 mg/kg, po administered for 15 days by glucose oxidase method (reference value: 85.7 +/- 7.2 mg/dl); format: organism-based; parameters: dose 20 mg/kg, route oral; details: in vivo, 360 h
Rattus norvegicus [5] = assay: Antidiabetic activity in Rattus norvegicus Wistar (rat) assessed as STZ-induced plasma glucose level at 10 mg/kg, po administered for 15 days by glucose oxidase method (reference value: 377.3 +/- 10.5 mg/dl); format: functional

Structure (SMILES) | Activity (Rattus norvegicus [1]) | Activity (Rattus norvegicus [2]) [mg/dL] | Activity (Rattus norvegicus [3]) [mg/dL] | Activity (Rattus norvegicus [4]) [mg/dL] | Activity (Rattus norvegicus [5]) [mg/dL]
C=C1C(=O)O[C@@H]2/C=C(\C)CC/C=C(\C)CC[C@@H]12 [COSTUNOLIDE] | Dose-dependent effect | 167 | 285.5 | 85.5 | 240.7
C=C1CC[C@H]2C(C)=CC[C@H]3C(=C)C(=O)O[C@@H]3[C@@H]12 [EREMANTHIN] | Dose-dependent effect | 188.76 | 308.41 | 95.57 | 265.27

Source: ChEMBL document CHEMBL3045971, “Normalizing effects of Costus speciosus rhizome crude extracts and its fractions on diabetic complications in STZ-induced diabetic rats” (Med Chem Res, 2011)
